Laboratory results: patent publication US8067418B2, “Tricyclic angiotensin II agonists” (Vicore Pharma AB, priority 2005, dated 2011)

How the values were obtained:
duodenal mucosa = experiment: Test C: duodenal mucosal alkaline secretion assay; format: in vivo; conditions: co-administration with title compounds of the Examples, anaesthetised rats
Description: Duodenal Mucosal Alkaline Secretion Assay
Compounds were exposed to the duodenal mucosa in barbiturate-anaesthetised rats prepared for in situ titration of duodenal mucosal alkaline secretion, according to the methodology described by Flemström et al in Am. J. Physiol. (1982) 243, G348.

AT2 receptor = biological target: T1, AT2 receptor (Sus scrofa, UniProt A0A4X1W622); conditions: read-out: dissociation constant (Kd) at AT2 receptor; Scatchard analysis, porcine myometrial membranes, [L]=0.057 nM
T1 sequence (A0A4X1W622 1-362): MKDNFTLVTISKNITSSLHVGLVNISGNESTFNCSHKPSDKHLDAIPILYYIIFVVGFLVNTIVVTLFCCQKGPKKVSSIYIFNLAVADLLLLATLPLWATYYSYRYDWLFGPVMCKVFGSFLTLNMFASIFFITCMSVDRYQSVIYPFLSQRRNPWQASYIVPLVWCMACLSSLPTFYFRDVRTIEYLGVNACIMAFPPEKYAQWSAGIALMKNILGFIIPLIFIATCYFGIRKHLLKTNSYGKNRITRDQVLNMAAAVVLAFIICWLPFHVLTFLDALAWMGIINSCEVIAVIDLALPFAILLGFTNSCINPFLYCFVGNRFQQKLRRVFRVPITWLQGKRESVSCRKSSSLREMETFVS
Description: Myometrial membranes were prepared from porcine uteri according to the method by Nielsen et al (Clin. Exp. Pharm. Phys. (1997) 24, 309). […] Samples were incubated at 25° C. for 1 h, and binding was terminated by filtration through Whatman GF/B glass-fiber filter sheets using a Brandel cell harvester. The filters were washed with 3×3 mL of Tris-HCl (pH 7.4) and transferred to tubes. The radioactivity was measured using a gamma counter. […] The binding data were best fitted with a one-site fit. All experiments were performed at least in triplicate.

Molecule | effect of co-administration on the mucosal alkalisation stimulated by title compounds (duodenal mucosa) | Kd (AT2 receptor) [nM]
Cc1cc(Cn2cnc3c2C[C@@H](C(=O)O)N(C(=O)C(c2ccccc2)c2ccccc2)C3)ccc1N(C)C [PD123319] | blocked | –
Asp^1-Arg^2-Val^3-Tyr^4-Ile^5-His^6-Pro^7-Phe^8 [Ang II] | – | 0.7 ± 0.1
